In data set [1] the test system is mouse L-cells. Briefly: DNA transfection of mouse L-cells. Type of data set: cell-based. The procedure:
(§1) (a) Formation of the lipid-DNA complexBoth DNA and lipid are diluted to 1.5 ml each with HBS (150 mM NaCl, 20 mM Hepes pH 7.4) and then mixed. The DNA lipid complexes form immediately. A typical transfection would use 1 to 10 μg DNA and 100 μg of total lipid (DOTMA:PE, 1:1).
(b) Treatment of cells—Just confluent 100 mm tissue culture plates of cells are washed 2× with 5 ml of HBS and 3 ml of the DNA-lipid solution is added. […] After incubation for 16 hours at 37° the medium is replaced with 10 ml fresh medium and cells are harvested by scraping 2-3 days later. Cell extracts were prepared and CAT assays performed as previously described. For stable transfections 50% confluent cells were treated as above except that 2 days after transfection cells were passaged and grown in selective medium for either neomycin resistance (0.4 mg/ml G418) or E. coli XGPRT expression.

Data set [2] concerns mouse L-cells. Briefly: Cytotoxicity of dsRNA introduced into cells (trypan blue viability). Type of data set: cell-based. An excerpt: Interferon treatment of various cells including both mouse and human cells results in induction of an enzyme, 2-5A synthetase, which when activated by double stranded RNA produces 2-5A. 2-5A is a polymer of ATP that contains unique 2′-5′ linkages rather than the standard 3′-5′ linkages. 2-5A is effectively a communication molecule which activates a latent 2′-5′ endonuclease resulting in degradation of cellular mRNA. […] In the presence of double stranded RNA, 2-5A is produced and can be produced in sufficient concentrations to degrade the majority of the cellular RNA, including ribosomal RNA, resulting in cell death. In this respect, this system can be used as cytotoxic assay to analyze the capacity of a compound to introduce double stranded RNA into the cytoplasm of a cell. The double stranded RNA commonly used is poly IC, a commercially available compound which is used experimentally and classically to induce interferon by methods well known to those familiar in the art. Poly IC will not penetrate cells and cause cytotoxic effects alone, but requires a vehicle to help carry it across the cell membrane. The most common agent used for this purpose is DEAE dextran in experimental cell culture systems and a complex of carboxymethyl cellulose and polylysine in clinical use. […]

In a further data set the test system is Vero or L929 cells. Briefly: Inhibition of protein synthesis ([3H]leucine) by 2-5A, calcium phosphate coprecipitation. The class given is cell-based. An excerpt:
Oligoadenylates of the general structure ppp(A2′p)nA, n≧2, are referred to as “2-5A”. 2-5A molecules are well known, to those skilled in the art, to bind to an intracellular endonuclease resulting in activation of the endonuclease with subsequent cleavage of ribosomal and messenger RNA, resulting in inhibition of protein synthesis. […] A calcium phosphate coprecipitation technique can be employed to artificially introduce 2-5A into cells, which can be monitored by inhibition of protein synthesis. Thus 10^−5 to 10^−9 M 2-5A was added to a solution of 120 mM CaCl2, which was then added dropwise into bubbled Hepes buffered saline, pH 7.05 (8.0 g NaCl, 0.37 g KCl, 0.125 g Na2HPO4″2H2O, 1.0 g glucose, and 5.0 g Hepes per liter). A final sample volume of 0.5 ml was added to quadruplicate wells of Costar 24 well plates containing confluent Vero or L929 cells. After 45 minutes at room temperature, an additional 0.5 ml of media was added to each well and incubated an additional 90 minutes at 37° C. The solutions were then removed by aspiration, the cells were labelled for 90 minutes with [^3H] leucine (1 μCi/0.5 ml/well), and the trichloroacetic acid (TCA)-precipitable radioactivity was determined after incubating 30 minutes with cold 10% TCA, washing, harvesting the cells with 0.1 M NaOH, neutralizing with HCl, and quantitating the radioactivity by liquid scintillation counting. […] 50%-maximal inhibition occurred at approximately 10^−9 M 2-5A. However, the calcium phosphate treatment was very toxic to the cells, as determined from their morphology as well as approximately up to 40% reduction in protein synthesis of the cells receiving only the calcium phosphate treatment but no 2-5A.

The subject of the next data set is Vero cells. Briefly: Protein synthesis ([3H]leucine) in cells treated with DOTMA liposomes / 2-5A analog. The class given is cell-based. Particulars: 6 hours incubation, alone (no DOTMA); 2-5A analog at 10^−6 M. From the text:
Oligoadenylates of the general structure ppp(A2′p)nA, n≧2, are referred to as “2-5A”. 2-5A molecules are well known, to those skilled in the art, to bind to an intracellular endonuclease resulting in activation of the endonuclease with subsequent cleavage of ribosomal and messenger RNA, resulting in inhibition of protein synthesis. […] A calcium phosphate coprecipitation technique can be employed to artificially introduce 2-5A into cells, which can be monitored by inhibition of protein synthesis. […] The solutions were then removed by aspiration, the cells were labelled for 90 minutes with [^3H] leucine (1 μCi/0.5 ml/well), and the trichloroacetic acid (TCA)-precipitable radioactivity was determined after incubating 30 minutes with cold 10% TCA, washing, harvesting the cells with 0.1 M NaOH, neutralizing with HCl, and quantitating the radioactivity by liquid scintillation counting. […] However, the calcium phosphate treatment was very toxic to the cells, as determined from their morphology as well as approximately up to 40% reduction in protein synthesis of the cells receiving only the calcium phosphate treatment but no 2-5A.
Cells were incubated and protein synthesis was determined as described above except that the 60 mM CaCl2 was not included. […] In another test, cells were incubated with samples for 2, 6, or 18 hours and protein synthesis was determined as described above.

For a further data set, the system named is L-TK cells. Briefly: Stable transfection frequency (drug resistant colonies). The class given is cell-based, murine. Particulars: pSV2neo 1 μg with 10 μg carrier DNA. The procedure: (§2) (b) Treatment of cells—Just confluent 100 mm tissue culture plates of cells are washed 2× with 5 ml of HBS and 3 ml of the DNA-lipid solution is added. The cells are incubated for 3-5 hours at 37° and then 10 ml of DMEM+10% fcs is added. After incubation for 16 hours at 37° the medium is replaced with 10 ml fresh medium and cells are harvested by scraping 2-3 days later. Cell extracts were prepared and CAT assays performed as previously described.
(§3) Cells were transfected with calcium phosphate precipitated DNA as described with the addition of a glycerol shock. Similarly cells were transfected with the DEAE-dextran method as described.

A further data set relates to TA1 cells. Described as above. Type of data set: cell-based, murine. The method, then:
as §2, §3

The subject of another data set is Ψ2 cells. Described as above. The class given is cell-based, murine. The method, then:
as §2, §3

A further data set has as its system MSN610.2 cells. The data set is described as above. The class given is cell-based, rat. The note with it: MSN610.2, pSV2neo 1 μg with 10 μg carrier DNA. The method, then: as §2, §3
Data set [3] in a line: Solubility of drug in phosphate buffered saline. Type of data set: physicochemical. The method, then:
For example, 1-[4-(4-chlorophenyl)-2-(2,6-dichlorophenylthio)-n-butyl] imidazole nitrate without the presence of any of the compounds of this invention is insoluble in aqueous buffer (phosphate buffered saline, pH 7.4).
A 0.3% soluble preparation of the above drug was prepared using the following method:
18 mg of 1-[4-(4-chlorophenyl)-2-(2,6-dichlorophenylthio)-n-butyl] imidazole nitrate and 482 mg of N-(2,3-di-(9-(Z)-octadecenyloxy)-prop-1-yl-N,N,N-trimethylammonium chloride were dissolved in methylene dichloride. The methylene dichloride was evaporated under a stream of nitrogen and the dried film placed under vacuum overnight. The dried film was suspended in 6 ml phosphate buffered saline, pH 7.4, and sonicated to clarity.

Another data set deals with JZ.1 cells. Briefly: Transient transfection with pSV2CAT, CAT activity. Type of data set: cell-based, rat. The procedure: as §1
(§4) (b) Treatment of cells—Just confluent 100 mm tissue culture plates of cells are washed 2× with 5 ml of HBS and 3 ml of the DNA-lipid solution is added. The cells are incubated for 3-5 hours at 37° and then 10 ml of DMEM+10% fcs is added. After incubation for 16 hours at 37° the medium is replaced with 10 ml fresh medium and cells are harvested by scraping 2-3 days later. Cell extracts were prepared and CAT assays performed as previously described. For stable transfections 50% confluent cells were treated as above except that 2 days after transfection cells were passaged and grown in selective medium for either neomycin resistance (0.4 mg/ml G418) or E. coli XGPRT expression.
as §3

The subject of a further data set is CV-1 cells. Briefly: Transient transfection with pSV2CAT, CAT activity. The class given is cell-based, monkey. The note with it: CV-1 and COS 7 cells. The procedure:
as §1, §4, §3
Cells transfected with the plasmid pSV2CAT express CAT enzyme activity that can be measured in cell extracts 2 days after transfection. […]

Data set [4] can be described thus: DNA-lipid complex formation on sucrose density gradient. Type of data set: physicochemical. Particulars: lipid mixed with DNA at a ratio of 5:1 (wt:wt), gentle mixing. From the text:
DNA interacts spontaneously with solutions of DOTMA to form lipid-DNA complexes. This complex formation is due presumably to ionic interactions between the positively charged group on the DOTMA molecule and the negatively charged phosphate groups on the DNA. Complex formation was examined using a sucrose density gradient (not shown). In the absence of lipid, DNA migrated to the bottom of the gradient while lipid, in the absence of DNA, floated at the top. When lipid was mixed with DNA at a ratio of 5:1 (wt:wt) all the DNA migrated with the lipid. The association of 100% of the DNA with DOTMA after gentle mixing contrasts with conventional liposome encapsulation procedures which usually entrap less than 10% of the DNA, require an additional purification step to remove unencapsulated DNA or involve potentially destructive conditions such as vigorous agitation or sonication.

Some results are limits rather than exact numbers.

With `CCCCCCCCCCCCCCCCCC[N+](C)(C)CCCCCCCCCCCCCCCCCC.[Br-]` [dioctadecyl dimethyl ammonium bromide], in the data set with mouse L-cells [1], the “efficacy as mediators of DNA transfection” value is “little efficacy”.
In the case of Poly IC, the “Cell Survival” value with mouse L-cells [2] (1 million cells, 24 hrs treatment, trypan blue) was 100%. Moreover, the “frequency of surviving cells” value in the data set with mouse L-cells [2] (poly IC introduced by the DOTMA lipid) was 1×10^−6.
With `CCCCCCCCCCCCCCCCCCN` [stearylamine], in the data set on mouse L-cells [1], the “efficacy as mediators of DNA transfection” value is “little efficacy”.
For the molecule ppp(A2′p)2A, in the data set on Vero or L929 cells (after the calcium-phosphate precipitation technique, read-out: 50%-maximal inhibition of protein synthesis), the IC50 was around 1 nM. The “inhibition of protein synthesis” value in the data set on Vero or L929 cells (all concentrations, without calcium phosphate coprecipitation) is on record as “no inhibition of protein synthesis”.
In the case of calcium phosphate, the “reduction in protein synthesis” value in the data set on Vero or L929 cells (calcium phosphate treatment only, no 2-5A) is recorded as “up to 40%”. Further, the “% of protein synthesis of untreated cells” value in the data set on Vero cells was 64±3%. Further, the “Frequency × 10^5” value in the data set on L-TK cells is given as 3; with TA1 cells (TA1, pMSGC5a 7 μg), 1.3; in the data set with TA1 cells (TA1, pSV2neo 1 μg with 10 μg carrier DNA), 2; in the data set with TA1 cells (TA1, pZIPSVX 7 μg), 0.7; in the data set on Ψ2 cells (Ψ2, pZIPC5a 7 μg), 1.8; with Ψ2 cells (Ψ2, pZIPSVX 7 μg) it was 0.6. In addition, the “Frequency × 10^5” value in the data set on MSN610.2 cells is recorded as 1.3.
For the molecule `Clc1ccc(CCC(Cn2ccnc2)Sc2c(Cl)cccc2Cl)cc1.O=[N+]([O-])O` (stereo not shown) [1-[4-(4-chlorophenyl)-2-(2,6-dichlorophenylthio)-n-butyl] imidazole nitrate], the “soluble preparation of drug” value in data set [3] (18 mg drug with 482 mg DOTMA in 6 ml phosphate buffered saline pH 7.4, sonicated to clarity) is on record as 0.3%. Also, in data set [3] (phosphate buffered saline, pH 7.4, without compounds of the invention), the “solubility in aqueous buffer” value is reported as “insoluble”.
Turning to “5′-triphosphophoryladenylyl-(2′→5′)adenylyl-(2′→5′)adenylyl-(2′→6′)(3′-aza-N-hexyl-1′,2′,3′,4′-tetradeo xyhexopyranos-1′-yl)adenine [2-5A analog]”, the “% of protein synthesis of untreated cells” value in the data set with Vero cells turned out to be 82±14%.
Consider `CCCCCCCC/C=C\CCCCCCCCOCC(C[N+](C)(C)C)OCCCCCCCC/C=C\CCCCCCCC.[Cl-]` (stereo not shown) [DOTMA, N-(2,3-di(9-(Z)-octadecenyloxy))-prop-1-yl-N,N,N-trimethylammonium chloride], for which the “fold enhancement over the DEAE-dextran procedure” value with JZ.1 cells is on record as at least 80 fold. The “fold increase in CAT activity relative to transient transfection with DEAE-dextran” value with CV-1 cells is 6-11 fold. Moreover, in the data set with mouse L-cells [1] (serum present from the outset), the “CAT activity (% of control)” value is “less than 5%”. In addition, the “DNA associated with lipid” value in [4] is listed as 100%.
